Structures can show the parent of a compound that is named as a salt.
Assays:
α2-adrenoceptors = test system: α2-adrenoceptors; set-up: species or system rat
[1] = test system: bisected rat prostatic vas deferens

**Q.** With `NC[C@H](O)c1ccc(O)c(O)c1` [noradrenaline, (−)-noradrenaline bitartrate] as the molecule, how does the “−log IC50 of noradrenaline for inhibition of the response to electrical stimulation” value (α2-adrenoceptors) read?
**A.** Its value is 5.96±0.052.

**Q.** Which “effect on initial phase of the contraction” value ([1]; 0.3 mM) does the source give for `Cc1ccc(C(=O)Nc2ccc(S(=O)(=O)O)c3cc(S(=O)(=O)O)cc(S(=O)(=O)O)c23)cc1NC(=O)c1cccc(NC(=O)Nc2cccc(C(=O)Nc3cc(C(=O)Nc4ccc(S(=O)(=O)O)c5cc(S(=O)(=O)O)cc(S(=O)(=O)O)c45)ccc3C)c2)c1` [suramin] here?
**A.** Its value is “sensitive”.

**Q.** With CCLIPACRRNHKKFC [truncated ρ-TIA] as the molecule, how does the “selective β1-adrenoceptor antagonist activity” value (β1-adrenoceptor) read?
**A.** Its value is “inactive”.

**Q.** Which “effect on second phase of the contraction” value [1] does the source give for `COc1cc2nc(N3CCN(C(=O)c4ccco4)CC3)nc(N)c2cc1OC` [prazosin, prazosin hydrochloride] here?
**A.** Its value is “inhibited”.

**Q.** With `NC1=N[C@H](O)[C@H]2[C@H]3O[C@]4(O)O[C@@H]([C@@H](O)[C@@]2(N1)[C@@H]4O)[C@]3(O)CO` [tetrodotoxin] as the molecule, how does the “effect on contractions evoked by field stimulation” value [1] read?
**A.** The value was “abolished”.

— US6849601B1 (priority 1998, dated 2005)
